The source of these data is patent US10125112B2, “Modulators of the relaxin receptor 1” (The United States of America, as Represented by the …, priority 2012, dated 2018).

Values after ≈ are worked out from the molar mass of the structure shown.

A short description of data set [1]: ATP Cytotoxicity assay (ATPLite) in HEK293-RXFP1 cells. In kind it is cell-based. The following applies: human, inactive = Maximum response less than 30%, read-out: ATP Tox. EC50 (μM, Max. Resp.): EC50. On the procedure: This follow-up assay was conducted to measure the effect of compounds on cell viability by measuring ATP levels (ATPLite™). ATPLite™ is an Adenosine TriPhosphate (ATP) monitoring system based on firefly (Photinus pyralis) luciferase. The level of ATP in a metabolically active cell is a general marker for its viability. ATP levels are often reduced during necrosis or apoptosis. In this assay, the luciferase enzyme catalyzes the conversion of the added substrate D-luciferin to oxyluciferin and light with ATP. Thus, the emitted light is proportional to the ATP concentration. […] After compound incubation, the levels of ATP in each well were measured with the addition of the ATPLite assay reagent.
(In general: ATP-based viability assays read luminescence as a measure of living cells.)

Another data set deals with T1, RXFP1 (Homo sapiens, UniProt Q9HBX9).
T1 construct: expressed in transfected cells
T1 sequence (Q9HBX9 1-757): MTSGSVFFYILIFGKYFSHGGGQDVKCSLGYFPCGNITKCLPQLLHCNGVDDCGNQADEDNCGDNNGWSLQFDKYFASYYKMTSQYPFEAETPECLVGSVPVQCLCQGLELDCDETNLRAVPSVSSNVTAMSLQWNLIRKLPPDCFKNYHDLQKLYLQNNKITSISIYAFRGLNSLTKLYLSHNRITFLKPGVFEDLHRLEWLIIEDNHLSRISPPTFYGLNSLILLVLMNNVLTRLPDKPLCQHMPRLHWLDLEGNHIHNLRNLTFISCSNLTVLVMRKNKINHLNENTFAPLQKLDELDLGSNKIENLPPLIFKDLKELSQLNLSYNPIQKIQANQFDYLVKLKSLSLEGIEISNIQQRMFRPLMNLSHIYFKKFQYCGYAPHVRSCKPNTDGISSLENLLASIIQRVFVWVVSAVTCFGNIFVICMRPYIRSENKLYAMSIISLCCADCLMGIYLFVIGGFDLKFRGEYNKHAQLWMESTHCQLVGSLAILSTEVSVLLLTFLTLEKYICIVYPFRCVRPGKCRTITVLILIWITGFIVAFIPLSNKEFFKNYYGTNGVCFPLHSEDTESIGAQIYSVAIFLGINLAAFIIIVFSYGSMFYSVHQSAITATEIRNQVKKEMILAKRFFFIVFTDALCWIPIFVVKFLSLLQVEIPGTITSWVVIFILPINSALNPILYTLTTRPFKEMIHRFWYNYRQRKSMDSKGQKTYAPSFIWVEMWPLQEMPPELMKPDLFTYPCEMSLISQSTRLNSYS
As to the kind of experiment: RXFP1 cAMP assay in HEK293-RXFP1 cells (HTRF). In kind it is cell-based. The following applies: percentage of the maximal receptor activation induced by high concentrations of forskolin; Tables 1-7; read-out: Max Response. On the procedure: The RXFP1 receptor couples to the Gs protein, and activation of the receptor results in stimulation of cAMP production. […] The TR-FRET between the K-α-cAMP and cAMP-d2 is disrupted by cAMP in the cell lysates, thus allowing TR-FRET detection in a homogenous format that is suitable for HTS. […] The primary screen was carried out in 1536-well format, however, because of a more robust signal to background ratio, all subsequent follow-up experiments were carried out in 384-well format.
For the primary screen, HEK293-RXFP1 cells were seeded at 2,000 cells/well in 3 μL/well media with a MultiDrop Combi dispenser (Thermo Scientific, Logan, Utah), and allowed to attach overnight at 37° C., 5% CO2. […] The cells were allowed to be stimulated with the compounds for 30 minutes at 37° C., 5% CO2, after which, 1 μL/well of each HTRF detection reagent was dispensed with a BioRAPTR FRD dispenser. The detection reagents were diluted before addition as follows: K-α-cAMP antibody at 1:20 and cAMP-d2 at 1:18 in HTRF lysis buffer (supplied by the assay kit). The plates were incubated for 30 minute at room temperature, and then the signal was read on a ViewLux plate reader (PerkinElmer, Waltham, Mass.).
The assay was run according to the following protocol:
Max Response indicates what the maximal amount of functional activity induced by the compound is, as a percentage of the maximal receptor activation induced by high concentrations of forskolin.
A general note: cAMP levels reflect the balance of adenylyl cyclase and phosphodiesterase activity.

A further data set can be described thus: PBS solubility. In kind it is physicochemical.
The target of the next data set is T2, RXFP2 (Homo sapiens, UniProt Q8WXD0).
T2 construct: expressed in transfected cells
T2 sequence (Q8WXD0 whole entry, species assumed): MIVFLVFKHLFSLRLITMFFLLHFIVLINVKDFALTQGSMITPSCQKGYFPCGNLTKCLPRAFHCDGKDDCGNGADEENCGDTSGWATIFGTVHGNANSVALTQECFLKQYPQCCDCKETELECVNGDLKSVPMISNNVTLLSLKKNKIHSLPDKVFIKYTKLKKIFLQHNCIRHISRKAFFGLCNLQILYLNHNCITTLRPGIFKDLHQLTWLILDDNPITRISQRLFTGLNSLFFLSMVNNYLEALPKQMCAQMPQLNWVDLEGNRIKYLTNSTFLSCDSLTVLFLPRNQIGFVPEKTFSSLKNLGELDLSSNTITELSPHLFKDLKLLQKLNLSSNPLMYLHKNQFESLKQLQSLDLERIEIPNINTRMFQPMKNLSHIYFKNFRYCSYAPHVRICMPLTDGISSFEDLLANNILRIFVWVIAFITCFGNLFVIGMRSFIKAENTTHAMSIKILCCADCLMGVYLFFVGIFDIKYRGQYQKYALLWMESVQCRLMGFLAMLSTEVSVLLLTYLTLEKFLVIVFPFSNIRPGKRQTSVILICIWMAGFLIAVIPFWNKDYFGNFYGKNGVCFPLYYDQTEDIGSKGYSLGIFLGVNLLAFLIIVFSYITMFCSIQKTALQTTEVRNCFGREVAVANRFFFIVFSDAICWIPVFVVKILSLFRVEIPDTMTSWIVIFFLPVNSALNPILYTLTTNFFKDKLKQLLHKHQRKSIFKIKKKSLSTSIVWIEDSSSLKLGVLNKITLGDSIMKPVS
As to the kind of experiment: RXFP2 cAMP assay in HEK293-RXFP2 cells. In kind it is cell-based. The following applies: for Emax: 0.5 h, read-out: RXFP2 AC50 (μM, Max. Resp.): Max. Resp.; for AC50: HEK293-RXFP2 cells, inactive = Maximum response less than 30%, read-out: RXFP2 AC50 (μM, Max. Resp.): AC50. On the procedure:
HEK293 cells stably transfected with RXFP2, the cognate receptor for another relaxin family peptide, insulin-like 3, (HEK293-RXFP2) was used to test compound specificity towards the RXFP1 receptor. For this assay, cells were seeded at 8,000 cells/well in 30 µL/well of media with a MultiDrop Combi dispenser (Thermo Scientific), and allowed to attach overnight at 37° C., 5% CO2. Next, 2 µL/well of 1.6 mM Ro 20-1724 solution in PBS+(DPBS, 1 mM CaCl2, 0.5 mM MgCl2, 0.05% BSA, 0.005% Tween 20) were dispensed using a BioRAPTR FRD dispenser (Beckman Coulter, Brea, Calif.), followed addition of 0.25 μL/well of compound solution in DMSO with CyBi-well dispenser (CyBio, Jena, Germany). The cells were allowed to be stimulated with the compounds for 30 minutes at 37° C., 5% CO2, after which, 8 μL/well of each HTRF detection reagent (diluted according to assay kit directions in HTRF lysis buffer) was dispensed with a BioRAPTR FRD dispenser. The plates were incubated for 30 minute at 37° C., and then the signal was read on a ViewLux plate reader (PerkinElmer, Waltham, Mass.).

The target in a further data set is T3, vasopressin receptor 1b (Homo sapiens, UniProt P47901).
T3 construct: expressed in transfected cells
T3 sequence (P47901 1-424): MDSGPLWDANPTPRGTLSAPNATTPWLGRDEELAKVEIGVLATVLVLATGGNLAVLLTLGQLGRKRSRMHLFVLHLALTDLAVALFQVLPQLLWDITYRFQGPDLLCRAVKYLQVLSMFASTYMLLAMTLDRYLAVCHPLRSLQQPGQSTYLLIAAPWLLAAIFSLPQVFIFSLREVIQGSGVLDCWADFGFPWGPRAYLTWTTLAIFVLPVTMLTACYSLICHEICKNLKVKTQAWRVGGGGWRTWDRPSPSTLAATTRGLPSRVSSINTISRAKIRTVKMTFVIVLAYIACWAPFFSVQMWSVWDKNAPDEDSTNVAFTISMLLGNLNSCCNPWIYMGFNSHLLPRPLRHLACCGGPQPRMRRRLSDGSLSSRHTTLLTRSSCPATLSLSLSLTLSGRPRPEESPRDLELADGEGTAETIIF
As to the kind of experiment: V1b cAMP assay in HEK293-V1b cells. The following applies: inactive = Maximum response less than 30%. In kind it is cell-based. On the procedure: HEK293 stably transfected with a nonrelated G protein coupled receptor, vasopressin receptor 1b (HEK293-V1b), were used as an additional counter screen to eliminate compounds that increase cAMP HTRF signal through non-RXFP1 dependent mechanisms. For this assay, cells were seeded at 8,000 cells/well in 30 µL/well media with a MultiDrop Combi dispenser (Thermo Scientific, Logan, Utah), and allowed to attach overnight at 37° C., 5% CO2. Next, 2 μL/well of 1.6 mM Ro 20-1724 solution in PBS+(DPBS, 1 mM CaCl2, 0.5 mM MgCl2, 0.05% BSA, 0.005% Tween 20) was dispensed using a BioRAPTR FRD dispenser (Beckman Coulter, Brea, Calif.), followed by additional of 0.25 μL/well of compound solution in DMSO with CyBi-well dispenser (CyBio, Jena, Germany). The cells were allowed to be stimulated with the compounds for 30 minutes at 37° C., 5% CO2, after which, 8 μL/well of each HTRF detection reagent (diluted according to assay kit directions in HTRF lysis buffer) was dispensed with a BioRAPTR FRD dispenser. The plates were incubated for 30 minute at room temperature, and then the signal was read on a ViewLux plate reader (PerkinElmer, Waltham, Mass.).

The test system of another data set is cAMP in THP-1 cells. As to the kind of experiment: cyclic AMP assay in THP-1 cells. In kind it is cell-based. The following applies: Homo sapiens, THP-1, 0.5 h. On the procedure:
This Example illustrates the cyclic AMP assay in THP-1 cells. THP-1 cells were propagated in RPMI-1640 supplemented with 20% FBS, 0.05 mM β-mercaptoethanol, 100 U/mL penicillin and 100 μg/mL streptomycin at 37° C. in 5% CO2. Before assaying for cAMP response, cells were serum starved in RPMI-1640 supplemented with 0.05 mM (3-mercaptoethanol, 100 U/mL penicillin and 100 μg/mL streptomycin at 37° C. in 5% CO2 for 16 hrs. For 384-well format assays, cells were seeded as 30,000 cells/well in 30 μL/well media with a MultiDrop Combi dispenser (Thermo Scientific, Waltham, Mass.). Subsequently, 2 μL/well of 1.6 mM Ro 20-1724 and 160 uM forskolin in PBS+ (DPBS, 1 mM CaCl2, 0.5 mM MgCl2, 0.05% BSA, 0.005% Tween 20) was dispensed using a BioRAPTR FRD dispenser (Beckman Coulter, Brea, Calif.). Immediately after, 0.25 μL/well of compound solutions in DMSO was dispensed with CyBi-well dispenser (CyBio, Jena, Germany). The cells were allowed to be stimulated with compounds for 30 min at 37° C. in 5% CO2, after which, 8 μL/well of each HTRF cAMP HiRange kit (CisBio, Bedford, Mass.) detection reagent was dispensed with a BioRAPTR FRD dispenser. The detection reagents were diluted as such: K-α-cAMP antibody at 1:20 and cAMP-d2 at 1:18 in HTRF lysis buffer (supplied by the assay kit). The plates were incubated for 30 min at room temperature before the signal was read on an Envision plate reader (PerkinElmer, Waltham, Mass.).

For the compound `COc1ccccc1C(=O)Nc1ccccc1C(=O)Nc1cccc(SC(F)(F)F)c1` [Example 158], the EC50 at 72 h in data set [1] came out at 3.74 µM. The Emax worked out at 99% at RXFP1 and 54% at RXFP2. The same compound registered a solubility in “PBS solubility” (aqueous buffer) of 2.9 µM (≈ 1.29 µg/mL). For the same compound, the AC50 at RXFP2 was determined as 3.34 µM.

Turning to `CCOc1ccccc1C(=O)Nc1ccccc1C(=O)Nc1cccc(S(=O)(=O)C(F)(F)F)c1` [Example 174, 2-Ethoxy-N-(2-((3-((trifluoromethyl)sulfonyl)phenyl)carbamoyl)phenyl)benzamide], the “V1b AC50 (μM, Max. Resp.): AC50” value at vasopressin receptor 1b was “inactive^a”. Also, the “PBS Solubility” value in “PBS solubility” was less than 1.1 µM. For the same compound, a half-maximal response in the data set with cAMP in THP-1 cells (EC50) required 0.362 µM. Also, at RXFP2, the Emax came out at 38% and the half-maximal activity concentration (AC50) came to 7.47 µM.

Consider `CCCOc1ccccc1C(=O)Nc1ccccc1C(=O)Nc1cccc(S(=O)(=O)C(F)(F)F)c1` [Example 179], for which the concentration for a half-maximal effect (EC50) at 72 h in data set [1] amounted to 9.4 µM. Moreover, the Emax at RXFP1 was found to be 98%.

As usually defined, the EC50 is the midpoint of the concentration-response curve. A word on the solubility: it is how much of the substance goes into solution per volume. The low end stands for a poorly soluble substance, the high end for a readily soluble substance. As usually defined, the AC50 is the midpoint of the concentration-response curve, whichever way the signal moves.
